Data set [1] has as its system Hep 3B2. Kind of data set: Induction of autophagy in human Hep3B cells after 24 to 72 hrs by acridine orange staining based flow cytometry. The format is functional, cell-based. For orientation: In flow cytometry, cells or beads pass a laser one at a time.
The test system of data set [2] is Hep 3B2. The data set is described as follows: Cell cycle arrest in human Hep3B cells assessed as accumulation at S phase at 5 uM after 72 hrs by propidium iodide staining based flow cytometry (reference value: 16.4 to 21.1%). Type of data set: functional.
Data set [3] in a line: Growth inhibition of HUVEC at 12.5 uM after 24 hrs by MTT assay relative to control. The format is cell-based. The conditions noted are these: human, HUVEC cells; read-out: GI. On the technique in general: Formazan colour is commonly taken as a measure of viable cells.
Data set [4] concerns Hep 3B2. The data set is described as follows: Cell cycle arrest in human Hep3B cells assessed as accumulation at sub-G1 phase at 2.5 to 20 uM by propidium iodide staining based flow cytometry. Type of data set: functional. The conditions noted are these: TDE = time-dependent effect.
Data set [5] relates to Hep 3B2. The data set is described as follows: Cell cycle arrest in human Hep3B cells assessed as accumulation at G0/G1 phase at 20 uM after 48 hrs by propidium iodide staining based flow cytometry (reference value: 39.7 to 40.4%). The format is functional.
The test system of data set [6] is Hep 3B2. The data set is described as follows: Cell cycle arrest in human Hep3B cells assessed as accumulation at S phase at 20 uM after 48 hrs by propidium iodide staining based flow cytometry (reference value: 20.8 to 24%). Type of data set: functional.
Data set [7] relates to Hep 3B2. The data set is described as follows: Cell cycle arrest in human Hep3B cells assessed as accumulation at S phase at 2.5 uM after 72 hrs by propidium iodide staining based flow cytometry (reference value: 16.4 to 21.1%). Type of data set: functional.
Data set [8] can be described thus: Growth inhibition of HUVEC at 25 uM after 24 hrs by MTT assay relative to control. Type of data set: cell-based. The conditions noted are these: human, HUVEC cells; read-out: GI.
The subject of data set [9] is Hep 3B2. Kind of data set: Growth inhibition of human Hep3B cells at 10 uM after 24 hrs by MTT assay relative to control. The conditions noted are these: read-out: GI. The format is functional.
The test system of data set [10] is Hep 3B2. The data set is described as follows: Cell cycle arrest in human Hep3B cells assessed as accumulation at S phase at 20 uM after 24 hrs by propidium iodide staining based flow cytometry (reference value: 22.6 to 27.1%). The format is functional.
Data set [11] concerns Hep 3B2. The data set is described as follows: Cell cycle arrest in human Hep3B cells assessed as accumulation at G2/M phase at 5 uM after 72 hrs by propidium iodide staining based flow cytometry (reference value: 28.7 to 32.3%). Type of data set: functional.
Data set [12] concerns Hep 3B2. The data set is described as follows: Cell cycle arrest in human Hep3B cells assessed as accumulation at S phase at 2.5 uM after 24 hrs by propidium iodide staining based flow cytometry (reference value: 22.6 to 27.1%). Type of data set: functional.
For data set [13], the system named is Hep 3B2. The data set is described as follows: Cell cycle arrest in human Hep3B cells assessed as accumulation at G2/M phase at 10 uM after 72 hrs by propidium iodide staining based flow cytometry (reference value: 28.7 to 32.3%). The format is functional.
For data set [14], the system named is Hep 3B2. The data set is described as follows: Cell cycle arrest in human Hep3B cells assessed as accumulation at S phase at 20 uM after 72 hrs by propidium iodide staining based flow cytometry (reference value: 16.4 to 21.1%). The format is functional.
Data set [15] concerns Hep 3B2. Kind of data set: Cell cycle arrest in human Hep3B cells assessed as accumulation at S phase at 10 uM after 24 hrs by propidium iodide staining based flow cytometry (reference value: 22.6 to 27.1%). The format is functional.
Data set [16] has as its system Hep 3B2. Kind of data set: Cell cycle arrest in human Hep3B cells assessed as accumulation at G0/G1 phase at 10 uM after 48 hrs by propidium iodide staining based flow cytometry (reference value: 39.7 to 40.4%). Type of data set: functional.
The test system of data set [17] is Hep 3B2. Kind of data set: Cell cycle arrest in human Hep3B cells assessed as accumulation at G0/G1 phase at 10 uM after 72 hrs by propidium iodide staining based flow cytometry (reference value: 41.6 to 46.2%). Type of data set: functional.
In data set [18] the test system is Hep 3B2. Kind of data set: Induction of autophagy in human Hep3B cells at 10 uM after 48 hrs by acridine orange staining based flow cytometry (reference value: 0.9 to 3%). Type of data set: functional.
In data set [19] the test system is Hep 3B2. Kind of data set: Cell cycle arrest in human Hep3B cells assessed as accumulation at sub-G1 phase at 20 uM after 24 hrs by propidium iodide staining based flow cytometry (reference value: 1.9 to 3.6%). Type of data set: functional.
Data set [20] has as its system Hep 3B2. Kind of data set: Cell cycle arrest in human Hep3B cells assessed as accumulation at G0/G1 phase at 40 uM after 24 hrs by propidium iodide staining based flow cytometry (reference value: 36.3 to 39.0%). The format is functional.
The test system of data set [21] is Hep 3B2. The data set is described as follows: Cell cycle arrest in human Hep3B cells assessed as accumulation at G2/M phase at 40 uM after 48 hrs by propidium iodide staining based flow cytometry (reference value: 34.8 to […]%). Type of data set: functional.
Data set [22] relates to Hep 3B2. The data set is described as follows: Cell cycle arrest in human Hep3B cells assessed as accumulation at S phase at 40 uM after 72 hrs by propidium iodide staining based flow cytometry (reference value: 16.4 to 21.1%). Type of data set: functional.
Data set [23] relates to Hep 3B2. The data set is described as follows: Cell cycle arrest in human Hep3B cells assessed as accumulation at G0/G1 phase at 40 uM after 48 hrs by propidium iodide staining based flow cytometry (reference value: 39.7 to 40.4%). The format is functional.
For data set [24], the system named is Hep 3B2. The data set is described as follows: Induction of autophagy in human Hep3B cells at 40 uM after 48 hrs by acridine orange staining based flow cytometry (reference value: 0.9 to 3%). The format is functional.
For data set [25], the system named is Hep 3B2. The data set is described as follows: Down regulation of IL1B expression in human Hep3B cells at 1 uM after 6 to 24 hrs by L1000 expression profiling method relative to control. The format is functional.
Data set [26] concerns Hep 3B2. Kind of data set: Down regulation of NVL expression in human Hep3B cells at 1 uM after 6 to 24 hrs by L1000 expression profiling method relative to control. The format is functional.
The test system of data set [27] is Hep 3B2. Kind of data set: Down regulation of ORC1 expression in human Hep3B cells at 1 uM after 6 to 24 hrs by L1000 expression profiling method relative to control. The format is functional.
The next data set has as its system HT-29. Kind of data set: Cytotoxicity against human HT-29 cells after 6 days by MTT assay. The format is functional, cell-based. To be noted: HT-29, 144 h.
Data set [28] relates to Hep 3B2. The data set is described as follows: Cytotoxicity against human Hep3B cells after 6 days by MTT assay. Type of data set: functional, cell-based. To be noted: 144 h.
The test system of data set [29] is Hep 3B2. The data set is described as follows: Down regulation of HIST2H2BE expression in human Hep3B cells at 1 uM after 6 to 24 hrs by L1000 expression profiling method relative to control. The format is functional.
The subject of data set [30] is Hep 3B2. The data set is described as follows: Cell cycle arrest in human Hep3B cells assessed as accumulation at G0/G1 phase at 10 uM after 48 hrs in presence of curcumin by propidium iodide staining based flow cytometry (reference value: […] +/- […]%). Type of data set: functional.
Data set [31] has as its system Hep 3B2. The data set is described as follows: Induction of autophagy in human Hep3B cells assessed as ratio of LC3-2 to beta-actin level at 10 uM after 48 hrs in presence of curcumin by Western blot analysis. The format is functional.
For data set [32], the system named is Hep 3B2. The data set is described as follows: Up regulation of CDKN1A expression in human Hep3B cells at 1 uM after 6 to 24 hrs by L1000 expression profiling method relative to control. The format is functional.
Data set [33] concerns Hep 3B2. The data set is described as follows: Cell cycle arrest in human Hep3B cells assessed as accumulation at S phase at 10 uM after 48 hrs in absence of curcumin by propidium iodide staining based flow cytometry (reference value: 23.8 +/- 1.9%). Type of data set: functional.
In data set [34] the test system is Hep 3B2. Kind of data set: Down regulation of SLC27A3 expression in human Hep3B cells at 1 uM after 6 to 24 hrs by L1000 expression profiling method relative to control. Type of data set: functional.
Data set [35] concerns Hep 3B2. Kind of data set: Down regulation of SHB expression in human Hep3B cells at 1 uM after 6 to 24 hrs by L1000 expression profiling method relative to control. The format is functional.
For data set [36], the system named is Hep 3B2. The data set is described as follows: Down regulation of TMX2-CTNND1 expression in human Hep3B cells at 1 uM after 6 to 24 hrs by L1000 expression profiling method relative to control. The format is functional.

With `CNC(=O)c1cc(Oc2ccc(NC(=O)Nc3ccc(Cl)c(C(F)(F)F)c3)cc2)ccn1` [SORAFENIB], the Activity entry in the data set on Hep 3B2 [1] is “Dose-dependent effect”; in the data set with Hep 3B2 [2], 13.7%; in the data set with Hep 3B2 [4], “Tde”; with Hep 3B2 [5] it was 27.8%; in the data set on Hep 3B2 [6], 9.6%; in the data set with Hep 3B2 [7], 15%. Further, the Activity with Hep 3B2 [10] is reported as 14.3%; in the data set on Hep 3B2 [11], 31.3%; in the data set with Hep 3B2 [12], 21.9%; with Hep 3B2 [13] it was 22.7%; in the data set with Hep 3B2 [14], 6.2%; in the data set with Hep 3B2 [15] it was 12.3%. Also, the inhibition at 24 h, 12.5 µM in [3] was determined as 37.4%. For the same compound, the inhibition at 24 h, 25 µM in data set [8] worked out at 41.4%. Moreover, the inhibition of growth at 10 µM with Hep 3B2 [9] worked out at 8.6%.
For `COc1ccc(CNC(=O)Nc2ncc([N+](=O)[O-])s2)cc1`, the Activity in the data set with Hep 3B2 [16] is 39.4%; in the data set on Hep 3B2 [1], “Dose-dependent effect”; in the data set on Hep 3B2 [2], 21.7%; in the data set on Hep 3B2 [17] it was 43.3%; in the data set on Hep 3B2 [18], 5.8%; with Hep 3B2 [5] it was 37.8%. The Activity with Hep 3B2 [19] is 4.7%; in the data set on Hep 3B2 [6] it was 20%; in the data set on Hep 3B2 [20], 35%; with Hep 3B2 [7], 21.1%; in the data set on Hep 3B2 [10], 25.1%; in the data set on Hep 3B2 [11], 33.9%. The Activity with Hep 3B2 [21] turned out to be 41.6%; with Hep 3B2 [12] it was 25.7%; with Hep 3B2 [22], 13.5%; in the data set with Hep 3B2 [13], 34.1%; with Hep 3B2 [14] it was 19.5%; in the data set on Hep 3B2 [23], 34.7%. In addition, the Activity is given as 7.7% with Hep 3B2 [24] and 23.4% with Hep 3B2 [15].
With `O=C1COc2ccccc2N1Cc1cn(CCC2OCCO2)nn1`, the log2FC is given as -3.3463 in the data set with Hep 3B2 [25]; -3.779 with Hep 3B2 [26]; -3.3272 in the data set on Hep 3B2 [27]; -4.2274 in the data set with Hep 3B2 [29]; 3.0523 in the data set with Hep 3B2 [32]; -3.1535 with Hep 3B2 [34]. Besides, the log2FC with Hep 3B2 [35] is -3.2569; with Hep 3B2 [36] it was -3.9071. The IC50 – broadly, the concentration that inhibits the measured activity by half – in the data set with HT-29 turned out to be 5.7 µM; with Hep 3B2 [28], 0.5 µM. Also, the Activity in the data set with Hep 3B2 [30] was 24.8%; in the data set on Hep 3B2 [4] it was “Tde”; in the data set on Hep 3B2 [18], 20.3%; in the data set with Hep 3B2 [19], 34.1%; with Hep 3B2 [33], 13.9%. For the same compound, the inhibition at 24 h, 12.5 µM in data set [3] is 15.2%. The Ratio in the data set with Hep 3B2 [31] stood at 10.5. Besides, the inhibition at 24 h, 25 µM in data set [8] is 23.8%. The inhibition of growth at 10 µM with Hep 3B2 [9] turned out to be 18%.

The record behind these values is ChEMBL document CHEMBL4024707, “Using gene expression database to uncover biology functions of 1,4-disubstituted 1,2,3-triazole analogues synthesized via a copper (I)-catalyzed reaction” (Eur J Med Chem, 2017).
